Format in all cases: cell-based, human
Experiment [1] concerns WM-164 cells. The experiment can be described thus: Annexin V apoptosis/necrosis assay, WM-164. Here is the method:
Apoptosis Assays using Flow Cytometry with Annexin V-FITC and propidium iodide (PI). For induction of typical apoptosis, cells were grown in the presence of 1 μM staurosporine (Sigma-Aldrich) for 6 hours. The staurosporine treated cells were stained as follows: control 1 with PI, control 2 with Annexin V-FITC and control 3 both PI and Annexin V-FITC in order to have the brightest controls for compensation and proper collection of the flow cytometry data. Cell necrosis was induced by heat shock (65° C. for 30 minutes). The stained control, both PI and Annexin V-FITC labeled, was then used as the reference in establishing the level of apoptosis induced by the treatments. Data was collected on logarithmic modes, two-colors. Annexin V-FITC corresponds to FL1 H channel, and PI to FL3H or FL2H channels.
Annexin V-FITC and PI apoptosis assay staining protocol. Apoptosis Annexin V-FITC and PI kit from BD Biosciences, CA, USA, was used. 10^5-10^6 cells were stained with 50 μg/ml PI and with 0.5 μg/ml FITC-labeled Annexin V using the staining protocol provided by the supplier. Samples were then analyzed immediately by flow cytometry.

For experiment [2], the system named is MCF-7 cells. The experiment can be described thus: Anchorage independence in soft agar, MCF-7. The settings on record: DMAT 10 μM, one week.
In experiment [3] the test system is platelets from MEG-01 cells. Briefly: Function assays of platelets released from treated MEG-01 cells. Here is the method:
Platelets isolation from culture. Platelets were separated from the megakaryocytic cells, by differential centrifugation and analyzed separately. Suspension cells were centrifuged first at 100 g-150 g for 15 minutes, and then the platelets rich supernatant was kept and centrifuged again at 800 g for 15 minutes. For impeding artefactual aggregation of platelets in the control, EDTA and RGD or RGDS were added in the cell suspension from the beginning of the centrifugations, and with each centrifugation step. 1 mg/ml RGD or RGDS and 10 mM EDTA final concentrations, were used for negative control (inactivated) or resting platelets. Platelets were activated with different agonists: 100 nM PMA, 1 μg/ml TRAP and 0.5 U/ml human a-thrombin. For most of assays TRAP 1 μg/ml was used. For scanning electron microscopy experiment (formation of the fibrin clot) human a-thrombin was used. For both sample sets, activated (with TRAP) and inactivated (EDTA, RGD), platelets collected from MEG-01 cultures incubated with 10 μM DMAT for 4 days were utilized.
PAC-I-FITC binding due to platelet activation flow cytometric assay. Monoclonal antibody PAC-1 recognizes an epitope on the glycoprotein αIIbβ3 of activated platelets. […]
Fibrinogen-Alexa Fluor 488 binding to platelets flow cytometric assay. […] Final concentration of fibrinogen conjugated to Alexa Fluor 488 was determined spectrophotometrically. […]

Take `CN(C)c1nc2c(Br)c(Br)c(Br)c(Br)c2[nH]1` [DMAT, 2-dimethylamino-4,5,6,7-tetrabromo-1H-benzimidazole]: the “level of necrotic cells” value in experiment [1] (10 μM DMAT, 24 hours, control 4.8%) came to 2.0%; in experiment [1] (20 μM DMAT) it was 4.1%. In addition, the “level of apoptotic cells” value in experiment [1] (10 μM DMAT, 24 hours, control 16.9%) was 36.8%. Moreover, the “level of apoptic cells” value in experiment [1] (20 μM DMAT) amounted to 26.8%. The “colonies in soft agar” value in experiment [2] is “much smaller and fewer colonies”. Also, the “fibrin clot formation by platelets from treated MEG-01 cells” value in experiment [3] (DMAT 10 μM at 72 hours, human thrombin 0.5 U/ml) was “form a fibrin clot”. Besides, the “function of platelets obtained from treated MEG-01 cells” value in experiment [3] (response to human thrombin 0.5 U/ml) is given as “functional”.

The values above are taken from patent publication US20090054507A1, “CONTROL OF MALIGNANT CELLS BY KINASE INHIBITION” (CLEVELAND STATE UNIVERSITY, priority 2006, published 2009).
